Test results published in PubChem BioAssay (NCI).
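All cell lines were grown in 96-well plates and treated with compound for 48 hours. TGI is the concentration that stops growth completely.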

Legend:
Experiment in all cases: growth of human tumour cells (NCI), 48 h
[1] = system: 786-0 renal
[2] = system: U251 CNS
[3] = system: UACC-62 melanoma
[4] = system: UO-31 renal
[5] = system: NCI-H460 lung
[6] = system: A549 NSCLC
[7] = system: COLO 205 colon
[8] = system: DMS 114 small cell lung
[9] = system: SF-539 CNS
[10] = system: HCC-2998 colon
[11] = system: HCT-15 colon
[12] = system: TK-10 renal
[13] = system: K-562 leukemia
[14] = system: HL-60(TB) leukemia
[15] = system: A498 renal
[16] = system: KM20L2 colon
[17] = system: IGROV1 ovarian
[18] = system: OVCAR-3 ovarian
[19] = system: XF 498 CNS
[20] = system: CCRF-CEM leukemia
[21] = system: RPMI-8226 leukemia
[22] = system: RXF 393 renal
[23] = system: SF-295 CNS
[24] = system: RXF-631 renal
[25] = system: SNB-75 CNS
[26] = system: LOX IMVI melanoma
[27] = system: LXFL 529 NSCLC
[28] = system: HOP-92 NSCLC
[29] = system: HOP-62 NSCLC
[30] = system: OVCAR-4 ovarian
[31] = system: OVCAR-8 ovarian
[32] = system: MOLT-4 leukemia
[33] = system: DLD-1 colon
[34] = system: M19-MEL melanoma
[35] = system: SK-MEL-28 melanoma
[36] = system: SK-MEL-5 melanoma
[37] = system: NCI-H23 lung
[38] = system: UACC-257 melanoma
[39] = system: SF-268 CNS
[40] = system: KM12 colon
[41] = system: MALME-3M melanoma
[42] = system: EKVX NSCLC
[43] = system: SNB-19 CNS
[44] = system: HT29 colon
[45] = system: HCT-116 colon
[46] = system: DMS 273 small cell lung
[47] = system: OVCAR-5 ovarian
[48] = system: SN12C renal
[49] = system: NCI-H522 lung
[50] = system: SNB-78 CNS
[51] = system: CAKI-1 renal
[52] = system: M14 melanoma
[53] = system: SW-620 colon
[54] = system: SK-MEL-2 melanoma
[55] = system: SR leukemia
[56] = system: SK-OV-3 ovarian

Cc1nnc(NS(=O)(=O)c2ccc(N=Nc3cc(N=Nc4ccc(S(=O)(=O)Nc5nnc(C)s5)cc4)c4c(NC(=O)C(Cl)Cl)cccc4c3OC(=O)C(Cl)Cl)cc2)s1 (tested in a mixture with another compound)
TGI [1]: > 100 µM
TGI [2]: > 100 µM
TGI [3]: 89.1 µM
TGI [4]: > 100 µM
TGI [5]: > 100 µM
TGI [6]: 60.2 µM
TGI [7]: > 100 µM
TGI [8]: 62.5 µM
TGI [9]: 43 µM
TGI [10]: 62.1 µM
TGI [11]: > 100 µM
TGI [12]: 95.6 µM
TGI [13]: 77.8 µM
TGI [14]: 42.4 µM
TGI [15]: > 100 µM
TGI [16]: > 100 µM
TGI [17]: 97.5 µM
TGI [18]: 55.2 µM
TGI [19]: 92.9 µM
TGI [20]: > 100 µM
TGI [21]: 21 µM
TGI [22]: 55.9 µM
TGI [23]: > 100 µM
TGI [24]: > 100 µM
TGI [25]: 82 µM
TGI [26]: > 100 µM
TGI [27]: > 100 µM
TGI [28]: > 100 µM
TGI [29]: > 100 µM
TGI [30]: 39 µM
TGI [31]: 43.7 µM
TGI [32]: 33 µM
TGI [33]: 42.9 µM
TGI [34]: 57.2 µM
TGI [35]: 48.5 µM
TGI [36]: 75.8 µM
TGI [37]: 49.5 µM
TGI [38]: > 100 µM
TGI [39]: > 100 µM
TGI [40]: > 100 µM
TGI [41]: 65.3 µM
TGI [42]: 89.2 µM
TGI [43]: > 100 µM
TGI [44]: > 100 µM
TGI [45]: 41.7 µM
TGI [46]: 39.8 µM
TGI [47]: 55.5 µM
TGI [48]: > 100 µM
TGI [49]: 64.7 µM
TGI [50]: > 100 µM
TGI [51]: > 100 µM
TGI [52]: 73.4 µM
TGI [53]: > 100 µM
TGI [54]: 64.1 µM

CCCCCCc1cc(C(=O)Nc2ccc(Cl)cc2)nc(=S)[nH]1
TGI [2]: > 100 µM
TGI [4]: > 100 µM
TGI [6]: > 100 µM
TGI [55]: > 100 µM
TGI [9]: > 100 µM
TGI [11]: > 1 µM
TGI [13]: > 100 µM
TGI [14]: > 100 µM
TGI [15]: > 1 µM
TGI [16]: > 1 µM
TGI [17]: > 100 µM
TGI [18]: > 1 µM
TGI [20]: > 100 µM
TGI [21]: > 100 µM
TGI [24]: > 100 µM
TGI [27]: > 100 µM
TGI [28]: > 100 µM
TGI [29]: > 100 µM
TGI [30]: > 100 µM
TGI [32]: > 100 µM
TGI [36]: > 100 µM
TGI [37]: > 100 µM
TGI [38]: > 100 µM
TGI [40]: > 100 µM
TGI [42]: > 100 µM
TGI [43]: > 1 µM
TGI [47]: 85.8 µM
TGI [48]: > 100 µM
TGI [49]: > 100 µM
TGI [51]: > 100 µM
TGI [52]: > 100 µM
TGI [53]: > 100 µM
TGI [56]: > 100 µM
TGI [54]: > 100 µM
